{"source": "patent US8383617B2", "about": "“Treatment of protein aggregation diseases” (priority 2007, dated 2013)", "key": {"[1]": {"target": "Synthetic beta-amyloid peptide 1-40 (Homo sapiens, UniProt P05067)", "sequence (P05067 672-711)": "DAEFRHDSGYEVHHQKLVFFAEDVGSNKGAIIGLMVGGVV", "experiment": "Seprion assay screen for compounds that affect amyloid aggregation", "type": "biochemical", "conditions": "test compounds at 1 mM; for Relative aggregation compared to 'no compound' aggregation control: peptide 2.8 μg/ml, 30 min at 37° C., Seprion assay signal"}, "beta-amyloid 1-40 [2]": {"target": "T1, beta-amyloid 1-40 (Homo sapiens, UniProt P05067)", "T1 construct": "These mice develop increased amounts of beta-amyloid 1-40 and 1-42 in the brain; from tissue; host or cells: brain extracts of hAPP(751) transgenic mice", "T1 sequence (P05067 672-711)": "as above", "experiment": "Seprion assay of brain extracts of treated hAPP(751) mice, beta-amyloid 1-40", "type": "in vivo", "conditions": "SDS extracts of brain; daily oral from 2 to 6 months of age; fluphenazine 0.5 mg/Kg, trimipramine 25 mg/Kg; one value per animal"}, "beta-amyloid 1-42 [3]": {"target": "T2, beta-amyloid 1-42 (Homo sapiens, UniProt P05067)", "T2 construct": "ELISA and Seprion assay for amyloid — 1-40 and 1-42 on the SDS extracts; from tissue; host or cells: brain extracts of hAPP(751) transgenic mice", "T2 sequence (P05067 672-713)": "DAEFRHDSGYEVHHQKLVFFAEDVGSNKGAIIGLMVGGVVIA", "experiment": "Seprion assay of brain extracts of treated hAPP(751) mice, beta-amyloid 1-42", "type": "in vivo", "conditions": "SDS extracts of brain; daily oral from 2 to 6 months of age; fluphenazine 0.5 mg/Kg, trimipramine 25 mg/Kg; one value per animal"}, "beta-amyloid 1-40 [4]": {"target": "T1, beta-amyloid 1-40", "experiment": "ELISA of brain extracts of treated hAPP(751) mice, beta-amyloid 1-40", "type": "in vivo", "conditions": "daily oral from 2 to 6 months of age, fluphenazine 0.5 mg/Kg, trimipramine 25 mg/Kg, one value per animal"}, "beta-amyloid 1-42 [5]": {"target": "T2, beta-amyloid 1-42", "experiment": "ELISA of brain extracts of treated hAPP(751) mice, beta-amyloid 1-42", "type": "in vivo", "conditions": "daily oral from 2 to 6 months of age, fluphenazine 0.5 mg/Kg, trimipramine 25 mg/Kg, one value per animal"}, "amyloid plaques": {"system": "amyloid plaques", "experiment": "Immunohistochemistry of brains of treated hAPP(751) mice for amyloid plaques", "type": "in vivo", "conditions": "immunohistochemistry of brain; daily oral from 2 to 6 months of age; fluphenazine 0.5 mg/Kg, trimipramine 25 mg/Kg"}, "[6]": {"target": "Synthetic beta-amyloid peptide (Homo sapiens, UniProt P05067)", "sequence (P05067 672-711)": "as the sequence (P05067 672-711) above", "experiment": "PAGE and silver staining of aggregation reactions incubated with compounds", "type": "biochemical", "conditions": "peptide incubated in the presence of compound, FIG. 2"}, "[7]": {"experiment": "Therapy of a patient with Gerstman-Straussler-Scheinker (GSS) syndrome", "conditions": "intraventricular, before the combination therapy"}}, "note": "“And” between values parts separate entries of the source, which are not always exact repeats. Identical values can stand only once."}
{"compound": "Clc1ccc2c(c1)C(N1CCNCC1)=Nc1ccccc1O2", "note": "[Amoxapine, amoxapine]", "values": [{"measurement": "Relative aggregation compared to 'no compound' aggregation control", "setting": "[1]", "value": 119, "unit": "%"}]}
{"compound": "CN1CCN(CC/C=C2/c3ccccc3Sc3ccc(S(=O)(=O)N(C)C)cc32)CC1", "note": "[Cis-thiothixene, cis-thiothixene]", "values": [{"measurement": "Relative aggregation compared to 'no compound' aggregation control", "setting": "[1]", "value": 42, "unit": "%"}]}
{"compound": "OCCN1CCN(CCC=C2c3ccccc3Sc3ccc(C(F)(F)F)cc32)CC1", "note": "[Flupenthixol, cis-(Z)-flupenthixol]", "values": [{"measurement": "Relative aggregation compared to 'no compound' aggregation control", "setting": "[1]", "value": 48.2, "unit": "%"}]}
{"compound": "OCCN1CCN(CCCN2c3ccccc3Sc3ccc(C(F)(F)F)cc32)CC1", "note": "[Fluphenazine, fluphenazine]", "values": [{"measurement": "Seprion assay beta-amyloid 1-40 OD420 nm", "setting": "beta-amyloid 1-40 [2]", "value": "0.18 OD420 nm and 0.09 OD420 nm"}, {"measurement": "Seprion assay beta-amyloid 1-42 OD420 nm", "setting": "beta-amyloid 1-42 [3]", "value": "0.93 OD420 nm and 0.68 OD420 nm"}, {"measurement": "ELISA beta-amyloid 1-40 ng", "setting": "beta-amyloid 1-40 [4]; SDS extracts of brain", "value": "88 ng and 51 ng"}, {"measurement": "ELISA beta-amyloid 1-40 ng", "setting": "beta-amyloid 1-40 [4]; formic acid extracts of brain", "value": "116 ng and 119 ng"}, {"measurement": "ELISA beta-amyloid 1-42 ng", "setting": "beta-amyloid 1-42 [5]; SDS extracts of brain", "value": "295 ng and 165 ng"}, {"measurement": "ELISA beta-amyloid 1-42 ng", "setting": "beta-amyloid 1-42 [5]; formic acid extracts of brain", "value": "143 ng and 197 ng"}, {"measurement": "plaque reduction", "setting": "amyloid plaques", "value": 23, "unit": "%"}]}
{"compound": "c1ccc2c(c1)Nc1ccccc1S2", "note": "[Phenothiazine]", "values": [{"measurement": "Relative aggregation compared to 'no compound' aggregation control", "setting": "[1]", "value": 80, "unit": "%"}]}
{"compound": "CN(C)CCCN1c2ccccc2Sc2ccccc21.Cl", "note": "[Promazine, promazine]", "values": [{"measurement": "Relative aggregation compared to 'no compound' aggregation control", "setting": "[1]", "value": 44.5, "unit": "%"}, {"measurement": "inhibition of amyloid aggregation by PAGE and silver staining", "setting": "[6]", "value": "inhibit the aggregation of the amyloid"}]}
{"compound": "CC(CN(C)C)CN1c2ccccc2CCc2ccccc21", "note": "(centres unmarked) [Trimipramine, trimipramine]", "values": [{"measurement": "Relative aggregation compared to 'no compound' aggregation control", "setting": "[1]", "value": 259, "unit": "%"}, {"measurement": "inhibition of amyloid aggregation by PAGE and silver staining", "setting": "[6]", "value": "inhibit the aggregation of the amyloid"}, {"measurement": "Seprion assay beta-amyloid 1-40 OD420 nm", "setting": "beta-amyloid 1-40 [2]", "value": "0.11 OD420 nm and 0.58 OD420 nm and 0.14 OD420 nm and 0.10 OD420 nm"}, {"measurement": "Seprion assay beta-amyloid 1-42 OD420 nm", "setting": "beta-amyloid 1-42 [3]", "value": "0.26 OD420 nm and 2.26 OD420 nm and 0.98 OD420 nm and 0.64 OD420 nm"}, {"measurement": "ELISA beta-amyloid 1-40 ng", "setting": "beta-amyloid 1-40 [4]; SDS extracts of brain", "value": "169 ng and 101 ng and 195 ng and 89 ng"}, {"measurement": "ELISA beta-amyloid 1-40 ng", "setting": "beta-amyloid 1-40 [4]; formic acid extracts of brain", "value": "127 ng and 111 ng and 182 ng and 115 ng"}, {"measurement": "ELISA beta-amyloid 1-42 ng", "setting": "beta-amyloid 1-42 [5]; SDS extracts of brain", "value": "346 ng and 369 ng and 529 ng and 350 ng"}, {"measurement": "ELISA beta-amyloid 1-42 ng", "setting": "beta-amyloid 1-42 [5]; formic acid extracts of brain", "value": "174 ng and 185 ng and 311 ng and 213 ng"}, {"measurement": "plaque reduction", "setting": "amyloid plaques", "value": 15, "unit": "%"}]}
{"compound": "CCN(CC)CCCC(C)Nc1c2ccc(Cl)cc2nc2ccc(OC)cc12", "note": "(centres unmarked) [quinacrine]", "values": [{"measurement": "effect on amyloid aggregation (in words)", "setting": "[1]; Seprion assay screen", "value": "not effective"}]}
{"compound": "nortriptyline", "values": [{"measurement": "Relative aggregation compared to 'no compound' aggregation control", "setting": "[1]", "value": 189, "unit": "%"}]}
{"compound": "pentosan polysulphate", "values": [{"measurement": "clinical effect", "setting": "[7]", "value": "had no effect"}]}
{"compound": "protryptyline [Protriptyline]", "values": [{"measurement": "Relative aggregation compared to 'no compound' aggregation control", "setting": "[1]", "value": 184, "unit": "%"}]}
